This passage reports IC50 results from US20220089592A1, “IMIDAZO[1,2-A]PYRIDINYL DERIVATIVES AS IRAK4 INHIBITORS” (priority 2019, published 2022).

This assay concerns the target T1, IRAK4 (Homo sapiens, UniProt Q9NWZ3).
T1 sequence (Q9NWZ3 1-460): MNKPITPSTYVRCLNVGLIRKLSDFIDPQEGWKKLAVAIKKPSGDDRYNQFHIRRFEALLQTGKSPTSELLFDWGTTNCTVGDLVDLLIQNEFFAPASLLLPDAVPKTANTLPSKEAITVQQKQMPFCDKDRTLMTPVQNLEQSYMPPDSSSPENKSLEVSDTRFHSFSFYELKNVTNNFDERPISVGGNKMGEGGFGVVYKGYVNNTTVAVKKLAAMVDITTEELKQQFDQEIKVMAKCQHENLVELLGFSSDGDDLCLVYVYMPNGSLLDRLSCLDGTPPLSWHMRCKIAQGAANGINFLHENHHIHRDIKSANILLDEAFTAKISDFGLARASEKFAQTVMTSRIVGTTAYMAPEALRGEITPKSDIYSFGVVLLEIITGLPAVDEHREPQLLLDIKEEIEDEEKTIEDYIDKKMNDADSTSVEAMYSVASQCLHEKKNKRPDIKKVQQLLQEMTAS
The assay can be described thus: 2-hour 1 mM ATP IRAK4 Biochemical assay (as above, but with 100 pM IRAK4 and 1 mM ATP). To be noted: IRAK4 MSD BIOCHEMICAL (1 mM ATP) IC50 (μM), 100 pM IRAK4, 2 hours. The essentials:
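MSD electrochemiluminescence read-out: biotinylated peptide product bound to streptavidin plates, probed with anti-P-Thr rabbit antibody and Sulfo-Tag goat anti-rabbit. Kinase reaction used 1 mM ATP and 100 pM IRAK4 over 2 hours before EDTA quench.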
As a reminder, the IC50 is the concentration that gives 50% inhibition. `COc1nc(NC(=O)c2cccc(C(F)F)n2)cn2cc(C34COC(C)(C3)C4)nc12` [Example 554, 6-(difluoromethyl)-N-(8-methoxy-2-(1-methyl-2-oxabicyclo[2.1.1]hexan-4-yl)imidazo[1,2-a]pyrazin-6-yl)picolinamide 2,2,2-trifluoroacetate] had a half-maximal inhibitory concentration (IC50) of 0.011 µM.
For `COc1ccccc1C(=O)Nc1cn2cc(C34COC(C)(C3)C4)nc2c(OC)n1` [Example 443, 2-methoxy-N-(8-methoxy-2-(1-methyl-2-oxabicyclo[2.1.1]hexan-4-yl)imidazo[1,2-a]pyrazin-6-yl)benzamide], the half-maximal inhibitory concentration (IC50) came to 0.023 µM.
Consider `COc1cccc(C(=O)Nc2cn3cc(C45COC(C)(C4)C5)nc3c(OC)n2)n1` [Example 448, 6-methoxy-N-(8-methoxy-2-(1-methyl-2-oxabicyclo[2.1.1]hexan-4-yl)imidazo[1,2-a]pyrazin-6-yl)picolinamide 2,2,2-trifluoroacetate], for which it took 0.023 µM to reach half-maximal inhibition (IC50).
The compound `Cc1nn(C)cc1-c1cn2cc(NC(=O)c3cccc(C(F)F)n3)c(OC(C)C)cc2n1` [Example 263, 6-(difluoromethyl)-N-(2-(1,3-dimethyl-1H-pyrazol-4-yl)-7-isopropoxyimidazo[1,2-a]pyridin-6-yl)picolinamide] showed a 50% inhibitory concentration (IC50) of 0.001 µM.
Consider `CC(C)Oc1cc2nc(-c3cn(C)nc3C(F)F)cn2cc1NC(=O)c1cccc(C(F)F)n1` [Example 264, 6-(difluoromethyl)-N-(2-(3-(difluoromethyl)-1-methyl-1H-pyrazol-4-yl)-7-isopropoxyimidazo[1,2-a]pyridin-6-yl)picolinamide], for which 0.002 µM corresponded to half-maximal inhibition (IC50).
`COc1ncccc1C(=O)Nc1cn2cc(C34CCC(C)(C3)OC4)nc2c(F)c1OC(C)C` (centres unmarked) [Example 435, N-(8-fluoro-7-isopropoxy-2-(1-methyl-2-oxabicyclo[2.2.1]heptan-4-yl)imidazo[1,2-a]pyridin-6-yl)-2-methoxynicotinamide 2,2,2-trifluoroacetate] registered an IC50 of 0.012 µM.
`COc1ncccc1C(=O)Nc1cn2cc(C34COC(C)(C3)C4)nc2nc1OC1CC1` [Example 505, N-(7-cyclopropoxy-2-(1-methyl-2-oxabicyclo[2.1.1]hexan-4-yl)imidazo[1,2-a]pyrimidin-6-yl)-2-methoxynicotinamide 2,2,2-trifluoroacetate] yielded an IC50 of 0.007 µM.
The compound `CCc1cc(NC(=O)c2cccc(C(F)F)n2)cn2cc(C3CCOCC3)nc12` [Example 290, 6-(difluoromethyl)-N-(8-ethyl-2-(tetrahydro-2H-pyran-4-yl)imidazo[1,2-a]pyridin-6-yl)picolinamide] showed an IC50 of 0.013 µM. Against the preceding compound, the IC50 is about 1.9-fold higher.
`CC12CC(c3cn4cc(NC(=O)c5cccc(C(F)F)n5)ccc4n3)(CO1)C2` [Example 357, 6-(difluoromethyl)-N-(2-(1-methyl-2-oxabicyclo[2.1.1]hexan-4-yl)imidazo[1,2-a]pyridin-6-yl)picolinamide]: half-maximal inhibition (IC50) required 0.03 µM. Against the preceding compound, the IC50 is about 2.3-fold higher.
Turning to `CCOc1c(NC(=O)c2cccc(C(F)F)n2)cn2cc(C3CCOCC3)nc2c1Cl` [Example 272, N-(8-chloro-7-ethoxy-2-(tetrahydro-2H-pyran-4-yl)imidazo[1,2-a]pyridin-6-yl)-6-(difluoromethyl)picolinamide], the 50% inhibitory concentration (IC50) was found to be 0.003 µM.
`O=C(Nc1cn2cc(C3CCOCC3)nc2cc1OCC1CCCOC1)c1cccc(C(F)F)n1` (centres unmarked) [Example 193, 6-(difluoromethyl)-N-(7-((tetrahydro-2H-pyran-3-yl)methoxy)-2-(tetrahydro-2H-pyran-4-yl)imidazo[1,2-a]pyridin-6-yl)picolinamide] gave an IC50 of 0.001 µM.
As to `COc1ncccc1C(=O)Nc1cn2cc(C3CCOCC3)nc2c(OC)n1` [Example 458, 2-methoxy-N-(8-methoxy-2-(tetrahydro-2H-pyran-4-yl)imidazo[1,2-a]pyrazin-6-yl)nicotinamide 2,2,2-trifluoroacetate], the half-maximal inhibitory concentration (IC50) was found to be 0.036 µM.
Regarding `CC(C)Oc1cc2nc(C3CCOCC3)cn2cc1NC(=O)c1cc2ccccn2n1` [Example 381, N-(7-isopropoxy-2-(tetrahydro-2H-pyran-4-yl)imidazo[1,2-a]pyridin-6-yl)pyrazolo[1,5-a]pyridine-2-carboxamide 2,2,2-trifluoroacetate], it took 0.004 µM to reach half-maximal inhibition (IC50).
Compound `CC(C)Oc1nc2nc(C34COC(C)(C3)C4)cn2cc1NC(=O)c1cnn2cccc(F)c12` [Example 349, 4-fluoro-N-(7-isopropoxy-2-(1-methyl-2-oxabicyclo[2.1.1]hexan-4-yl)imidazo[1,2-a]pyrimidin-6-yl)pyrazolo[1,5-a]pyridine-3-carboxamide] yielded a half-inhibitory concentration (IC50) of 0.001 µM.
On to `COc1ncccc1C(=O)Nc1cn2cc(C34CCC(C)(C3)OC4)nc2c(OC)n1` (centres unmarked) [Example 468, 2-methoxy-N-(8-methoxy-2-(1-methyl-2-oxabicyclo[2.2.1]heptan-4-yl)imidazo[1,2-a]pyrazin-6-yl)nicotinamide 2,2,2-trifluoroacetate], for which the half-maximal inhibitory concentration (IC50) was 0.022 µM.
The compound `COc1nc(NC(=O)c2ccn(C)n2)cn2cc(C34COC(C)(C3)C4)nc12` [Example 441, N-(8-methoxy-2-(1-methyl-2-oxabicyclo[2.1.1]hexan-4-yl)imidazo[1,2-a]pyrazin-6-yl)-1-methyl-1H-pyrazole-3-carboxamide] registered an IC50 of 0.118 µM.
In the case of `COc1nc(NC(=O)c2cccc(C(F)F)n2)cn2cc(C3C4CCOCC43)nc12` (centres unmarked) [Example 556, N-(2-(3-oxabicyclo[4.1.0]heptan-7-yl)-8-methoxyimidazo[1,2-a]pyrazin-6-yl)-6-(difluoromethyl)picolinamide 2,2,2-trifluoroacetate], the half-maximal inhibitory concentration (IC50) is 0.005 µM.
In turn, `Cn1ccc(C(=O)Nc2cn3cc(C45COC(C)(C4)C5)nc3cc2OC(F)F)n1` [Example 397, N-(7-(difluoromethoxy)-2-(1-methyl-2-oxabicyclo[2.1.1]hexan-4-yl)imidazo[1,2-a]pyridin-6-yl)-1-methyl-1H-pyrazole-3-carboxamide 2,2,2-trifluoroacetate] came in with an IC50 of 0.021 µM.
As for `COc1nc2nc(C34CC(OC)(C3)C4)cn2cc1NC(=O)c1cccc(C(F)F)n1` [Example 565, 6-(difluoromethyl)-N-(7-methoxy-2-(3-methoxybicyclo[1.1.1]pentan-1-yl)imidazo[1,2-a]pyrimidin-6-yl)picolinamide], the figure is 0.01 µM.
Next, `COc1nc2nc(C34CC(F)(C3)C4)cn2cc1NC(=O)c1cccc(C(F)F)n1` [Example 566, 6-(difluoromethyl)-N-(2-(3-fluorobicyclo[1.1.1]pentan-1-yl)-7-methoxyimidazo[1,2-a]pyrimidin-6-yl)picolinamide 2,2,2-trifluoroacetate]: 0.054 µM; `COc1ccccc1C(=O)Nc1cn2cc(C34COC(C)(C3)C4)nc2c(OC(C)C)n1` [Example 477, N-(8-isopropoxy-2-(1-methyl-2-oxabicyclo[2.1.1]hexan-4-yl)imidazo[1,2-a]pyrazin-6-yl)-2-methoxybenzamide 2,2,2-trifluoroacetate]: 0.015 µM; `COc1ncccc1C(=O)Nc1cn2cc(Cl)nc2cc1OC(C)C` [Example 401, N-(2-chloro-7-isopropoxyimidazo[1,2-a]pyridin-6-yl)-2-methoxynicotinamide]: 0.027 µM.
For the compound `COc1nc(NC(=O)c2cccc3c2OCC3(F)F)cn2cc(C34COC(C)(C3)C4)nc12` [Example 446, 3,3-difluoro-N-(8-methoxy-2-(1-methyl-2-oxabicyclo[2.1.1]hexan-4-yl)imidazo[1,2-a]pyrazin-6-yl)-2,3-dihydrobenzofuran-7-carboxamide], the IC50 worked out at 0.008 µM.
Regarding `COc1c(NC(=O)c2cccc(C(F)F)n2)cn2cc(C34COC(C)(C3)C4)nc2c1C` [Example 295, 6-(difluoromethyl)-N-(7-methoxy-8-methyl-2-(1-methyl-2-oxabicyclo[2.1.1]hexan-4-yl)imidazo[1,2-a]pyridin-6-yl)picolinamide], half-maximal inhibition (IC50) required 0.004 µM.
Next, `COc1nc2nc(C3C4COCC43)cn2cc1NC(=O)c1cccc(C(F)F)n1` (centres unmarked) [Example 568, N-(2-(3-oxabicyclo[3.1.0]hexan-6-yl)-7-methoxyimidazo[1,2-a]pyrimidin-6-yl)-6-(difluoromethyl)picolinamide 2,2,2-trifluoroacetate]: 0.009 µM; `CCOc1cc2nc(C(C)(C)O)c(Cl)n2cc1NC(=O)c1cccc(C(F)F)n1` [Example 354, N-(3-chloro-7-ethoxy-2-(2-hydroxypropan-2-yl)imidazo[1,2-a]pyridin-6-yl)-6-(difluoromethyl)picolinamide]: 0.438 µM; `COc1nc2nc(C3CC(OC)C3)cn2cc1NC(=O)c1cccc(C(F)F)n1` (centres unmarked) [Example 564, 6-(difluoromethyl)-N-(7-methoxy-2-(3-methoxycyclobutyl)imidazo[1,2-a]pyrimidin-6-yl)picolinamide]: 0.032 µM.
Turning to `CC12CC(c3cn4cc(NC(=O)c5cccc6ccnn56)cc(OC(F)F)c4n3)(CO1)C2` [Example 422, N-(8-(difluoromethoxy)-2-(1-methyl-2-oxabicyclo[2.1.1]hexan-4-yl)imidazo[1,2-a]pyridin-6-yl)pyrazolo[1,5-a]pyridine-7-carboxamide 2,2,2-trifluoroacetate], the IC50 came to 0.012 µM. This IC50 is about 2.7-fold lower than that of the compound before.
`Cc1nc(C(=O)Nc2cn3cc(C4CCOCC4)nc3cc2OC(C)C)co1` [Example 386, N-(7-isopropoxy-2-(tetrahydro-2H-pyran-4-yl)imidazo[1,2-a]pyridin-6-yl)-2-methyloxazole-4-carboxamide] returned a half-maximal inhibitory concentration (IC50) of 0.002 µM.
